{"source": "patent US20220241331A1", "about": "“IDENTIFICATION OF RECURRENT MUTATED NEOPEPTIDES” (Yeda Research and Development Co. Ltd., priority 2019, published 2022)", "key": {"135TIL": {"test_system": "135TIL", "assay": "IFNγ release ELISA, 135TIL co-incubated with peptide-pulsed A*01:01 B-cells", "assay_type": "cell-based, human", "settings": "for IFN-γ release from TIL stimulated by pulsed peptide: peptide-pulsed A*01:01 EBV-transformed B cells, overnight co-incubation, vs non-pulsed B-cell control (FIG. 3A); for TIL IFNγ response in peptide titration: titrated concentrations of pulsed peptide (FIG. 3B)", "procedure": "(§1) IFNγ's release from TIL, as measured in an enzyme-linked immunosorbent assay (ELISA), was used to quantify reactivity. Synthetic pure (>95% purity) mutant ([…] (SEQ ID NO: 1)) and wild-type ([…] (SEQ ID NO: 2)) peptides were purchased from GenScript and dissolved in DMSO.\n(§2) EBV-transformed B-cells bearing HLA allele A*01:01 were used for peptide pulsing. A B-cell suspension at 1×10^6 cells/ml was incubated with the peptide of choice, at the desired concentration (0.001-10 μg/ml), for 4 h in a 37° C., 5% CO2, humidified incubator. The DMSO volume was kept at 1% in all samples. For the no-peptide control, DMSO devoid of peptides was added. The B-cells were washed in PBS three times before proceeding to the co-incubation with TILs. TILs were co-cultured with either cognate melanoma or EBV-transformed B-cells at a 1:1 ratio (10^5-2×10^6 cells) and incubated overnight in a 37° C., 5% CO2, humidified incubator. The soluble IFNγ secreted from TILs was quantified from the co-culture supernatant using Biolegend Human IFN-γ ELISA MAX Deluxe (Cat#430106). All experiments were conducted in biological triplicates.\n(§3) To evaluate the immunogenicity of the NRAS.Q61K neo-antigen, two melanoma cell lines that harbor the HLA-A*01:01/NRAS.Q61K combination, 17T and 135T were analyzed. Synthetic mutant (ILDTAG ? EEY-SEQ ID NO: 1) or wild-type (ILDTAG ? EEY-SEQ ID NO: 2) peptide was pulsed on either one of three commercial, A*01:01 expressing, Epstein bar virus (EBV)-transformed B cells^35. No other HLA class-I allele was shared among all three B-cell lines, and no other HLA class-I allele expressed by these cell lines was predicted to bind the neo-peptide at hand (Table 2).\n(§4) The peptide-pulsed B-cells were co-incubated with either 17TIL or 135TIL overnight, followed by measurement of peptide stimulated interferon-γ (IFN-γ) release from the TIL by means of enzyme-linked immunosorbent assay (ELISA). […] Peptide titration assays further confirmed specific TIL reactivity towards the HLA-A*01:01/NRAS.Q61K neo-antigen, for both 17TIL and 135TIL (FIG. 3B)."}, "17TIL": {"test_system": "17TIL", "assay": "IFNγ release ELISA, 17TIL co-incubated with peptide-pulsed A*01:01 B-cells", "assay_type": "cell-based, human", "settings": "for IFN-γ release from TIL stimulated by pulsed peptide: peptide-pulsed A*01:01 EBV-transformed B cells, overnight co-incubation, vs non-pulsed B-cell control (FIG. 3A); for TIL IFNγ response in peptide titration: titrated concentrations of pulsed peptide (FIG. 3B)", "procedure": "as §1, §2, §3, §4"}, "[1]": {"target": "T1, RAS wild-type (NRAS) peptide on HLA-A*01:01 (human)", "T1 peptide": "ILDTAGQEEY", "assay": "cytokine release", "quoted_text": "(§5) Peripheral mononuclear cells (PBMC) from healthy donors were electroporated with in-vitro transcribed mRNA, coding for TCRα/TCRβ combinations of interest. […] (A) Flow cytometry plots for electroporated PBMC. Top row—mouse TCRβ constant region staining. Bottom row—[sequence]/A*01:01 tetramer staining. Cells were stained at 6-30 hours post electroporation. (B) IFNγ release from electroporated donor PBMC as measured in ELISA. A*01:01+ B-LCL IHW01161 was pulsed with either wild-type or mutant versions of the peptide at 10 μM prior to overnight co-incubation with electroporated PBMC. Supernatants were diluted 1:20 prior to assay performance to avoid saturation."}, "[2]": {"target": "T2, NRAS Q61K (RAS.Q61K) peptide on HLA-A*01:01 (human)", "T2 peptide": "ILDTAGKEEY", "assay": "multimer staining", "quoted_text": "as §5"}, "[3]": {"target": "T2, NRAS Q61K (RAS.Q61K) peptide on …", "assay": "cytokine release", "quoted_text": "as §5"}}, "data": [{"molecule": "ILDTAGKEEY [RAS.Q61-derived neo-peptide, variant Q61K; presented on HLA-A*01:01]", "values": [{"measurement": "minimum peptide concentration with significant IFNγ response", "setting": "135TIL; peptide titration (FIG. 3B)", "value": 1, "unit": "ng/mL"}, {"measurement": "IFN-γ release from TIL stimulated by pulsed peptide", "setting": "135TIL", "value": "stimulated a clear interferon-γ (IFN-γ) signal"}, {"measurement": "TIL IFNγ response in peptide titration", "setting": "135TIL", "value": "clear dose-response relationship"}, {"measurement": "minimum peptide concentration with significant IFNγ response", "setting": "17TIL; peptide titration (FIG. 3B)", "value": 10, "unit": "ng/mL"}, {"measurement": "IFN-γ release from TIL stimulated by pulsed peptide", "setting": "17TIL", "value": "stimulated a clear interferon-γ (IFN-γ) signal"}, {"measurement": "TIL IFNγ response in peptide titration", "setting": "17TIL", "value": "clear dose-response relationship"}]}, {"molecule": "ILDTAGQEEY [WT RAS.Q61-derived peptide, reference compound]", "values": [{"measurement": "IFN-γ release from TIL stimulated by pulsed peptide", "setting": "135TIL", "value": "did not elicit significant increase over a non-pulsed B-cell control"}, {"measurement": "TIL IFNγ response in peptide titration", "setting": "135TIL", "value": "non-significant and did not depend on peptide concentration"}, {"measurement": "IFN-γ release from TIL stimulated by pulsed peptide", "setting": "17TIL", "value": "did not elicit significant increase over a non-pulsed B-cell control"}, {"measurement": "TIL IFNγ response in peptide titration", "setting": "17TIL", "value": "non-significant and did not depend on peptide concentration"}]}, {"molecule": "N17.3 (TCR) alpha TRAV19 TRAJ17 CDR3: CALSESGDAAGNKLTF beta TRBV6-1 TRBJ1-1 CDR3: CAEGENTEAFF", "values": [{"measurement": "binding result", "setting": "[1]", "value": "no recognition"}, {"measurement": "binding result", "setting": "[2]", "value": "recognises"}]}, {"molecule": "N135.1 (TCR) alpha TRAV19 TRAJ39 CDR3: CALSESHNNAGNMLTF beta TRBV6-1 TRBJ1-1 CDR3: CAASQNTEAFF", "values": [{"measurement": "binding result", "setting": "[1]", "value": "no recognition"}, {"measurement": "binding result", "setting": "[2]", "value": "recognises"}]}, {"molecule": "NA135.1/NB17.3 (TCR) alpha TRAV19 TRAJ39 CDR3: CALSESHNNAGNMLTF beta TRBV6-1 TRBJ1-1 CDR3: CAEGENTEAFF", "values": [{"measurement": "binding result", "setting": "[3]", "value": "recognises"}]}, {"molecule": "N17.2 (TCR) alpha TRAV5 TRAJ9 CDR3: CAESSGGGFKTIF beta TRBV6-6 TRBJ2-7 CDR3: CASSTPGPSAYEQYF", "values": [{"measurement": "binding result", "setting": "[1]", "value": "no recognition"}, {"measurement": "binding result", "setting": "[2]", "value": "recognises"}]}]}
